Results from PMC10333884, “Large‐scale phosphomimetic screening identifies phospho‐modulated motif‐based protein interactions” (Molecular Systems Biology, 2023).
Residues, ends and D or L forms follow the SMILES beside them. *: point of attachment. FITC = O=C1OC2(c3ccc(O)cc3Oc3cc(O)ccc32)c2ccc(NC(=S)*)cc21

Legend:
PDCD6IP Alix V domain = biological target: T1, PDCD6IP Alix V domain (Homo sapiens, UniProt Q8WUM4); assay: FP saturation experiment, PDCD6IP Alix V domain; settings: FP saturation (direct binding), 5 nM FITC-labelled peptide, 50 mM sodium phosphate pH 7.4, room temperature; at least technical triplicates; reference for probe peptide RiboVD, Mihalič et al, to be published; read-out: KD [µM] + SE
T1 construct: GST (cleaved yes); made in house; host or cells: Escherichia coli BL21-Gold(DE3)
T1 sequence (Q8WUM4 360-702): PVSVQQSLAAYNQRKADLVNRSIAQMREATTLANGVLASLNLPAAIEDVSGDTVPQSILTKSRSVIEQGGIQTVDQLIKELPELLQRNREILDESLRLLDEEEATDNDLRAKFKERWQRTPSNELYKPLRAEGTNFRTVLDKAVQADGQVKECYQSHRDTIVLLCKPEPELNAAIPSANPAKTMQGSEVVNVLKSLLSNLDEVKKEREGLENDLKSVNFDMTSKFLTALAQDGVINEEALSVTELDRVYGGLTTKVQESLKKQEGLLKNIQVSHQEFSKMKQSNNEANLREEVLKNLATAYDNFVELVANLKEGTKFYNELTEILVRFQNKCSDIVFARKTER
Protocol: (§1) FP experiments were performed as described previously (Kliche et al, [2021]). Shortly, in order to monitor the binding event, FITC‐labelled peptides were used (excitation 495 nm, emission: 535 nm) and the FP signal was recorded in mP on a SpectraMax iD5 Multi‐Mode Microplate Reader (Molecular Devices) by measuring the emitted light in two angels. The measurements were performed at room temperature and prepared in nonbinding black half area 96‐well microplates (Corning®; 50 μl/well). For measuring direct binding, that is saturation curves, a 1:1 dilution series of protein domain (25 μl/well) was generated in 50 mM sodium phosphate buffer pH 7.4 and the measurement performed with 5 nM FITC‐labelled peptide (25 μl/well). The buffer‐corrected values were subsequently plotted with PRISM and fitted to the quadratic equation (Gianni et al, [2005]).

RANBP2 RanBD1 4 = biological target: T2, RANBP2 RanBD1 4 (Homo sapiens, UniProt P49792); assay: FP saturation experiment, RANBP2 RanBD1 4; settings: FP saturation (direct binding), 5 nM FITC-labelled peptide, 50 mM sodium phosphate pH 7.4, room temperature; at least technical triplicates; probe from this study; read-out: KD [µM] + SE
T2 construct: GST (cleaved yes); made in house; host or cells: Escherichia coli BL21-Gold(DE3)
T2 sequence (P49792 2924-3050): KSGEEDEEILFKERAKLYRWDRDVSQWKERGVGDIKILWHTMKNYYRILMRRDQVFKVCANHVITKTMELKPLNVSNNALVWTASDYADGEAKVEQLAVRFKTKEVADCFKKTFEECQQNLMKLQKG
Protocol: as §1

Compound	Kd (PDCD6IP Alix V domain)	Kd (RANBP2 RanBD1 4)
CC(C)C[C@H](NC(=O)[C@H](CO)NC(=O)[C@@H](NC(=O)[C@H](CC(C)C)NC(=O)[C@@H]1CCCN1C(=O)[C@@H]1CCCN1C(=O)[C@H](Cc1ccc(O)cc1)NC(=O)[C@H](CC(C)C)NC(=O)[C@H](CO)NC(=S)Nc1ccc2c(c1)C(=O)OC21c2ccc(O)cc2Oc2cc(O)ccc21)[C@@H](C)O)C(=O)N[C@@H](CCCNC(=N)N)C(=O)O [FITC-HIV1_Gag] ({FITC}-SLYPPLTSLR-OH)	3.6 ± 0.3 µM	–
CC(C)C[C@H](NC(=O)[C@H](C)NC(=O)[C@H](CCC(=O)O)NC(=O)[C@H](CCCCN)NC(=S)Nc1ccc2c(c1)C(=O)OC21c2ccc(O)cc2Oc2cc(O)ccc21)C(=O)N[C@@H](C)C(=O)N[C@H](C(=O)N1CCC[C@H]1C(=O)N[C@@H](CC(C)C)C(=O)N1CCC[C@H]1C(=O)N[C@@H](CCCCN)C(N)=O)[C@@H](C)O [FITC-C7orf25] ({FITC}-KEALATPLPK-NH2)	–	22 ± 1 µM
